Common to all, as to assay type: cell-based, Human
Experiment [1] concerns A375 melanoma cells (BRAFV600E mutant). As to the kind of experiment: Cell viability (Cell Titer-Glo) in A375 melanoma cells, single agents and matrix combination. To be noted: for cells killed / concentration that killed 100% of the cells: 72 hr; for cells killed: FIG. 3; for concentration that killed 100% of the cells: FIG. 2; for IC50: Homo sapiens, A-375, 72 hr, FIG. 2, read-out: concentration that killed 50% of the cells. The procedure: (§1) Human H1666 NSCLC (BRAFG466V mutant) and A375 melanoma cells (BRAFV600E mutant) were purchased from the American Type Culture Collection (Manassas, Va.) and grown in RPMI or DMEM, respectively, in the presence of fetal bovine serum (10%), 2 mM L-glutamine and antibiotics (100 IU/ml penicillin and 100 μg/ml streptomycin) purchased from Sigma Aldrich. Cells were maintained at 37° C., 5% CO2 atmosphere.
(§2) Cell viability was measured using the Cell Titer-Glo assay (Promega). In brief, cells were plated in 96-well plates in triplicate at optimal seeding density (determined empirically for each cell line) and incubated at 37° C., 5% CO2 atmosphere for 24 hr prior to the addition of drug or vehicle (0.3% DMSO) to the culture medium. At the end of the assay, Cell Titer-Glow was added to the wells per manufactures recommendation, shaken for two minutes and incubated for 10 minutes at room temperature. Luminescence (0.1 sec) was measured with a Victor II microplate reader (Perkin Elmer) and the resulting data were used to calculate cell viability, normalized to vehicle control.
Matrix style combinations between AZD6244 and Ganetespib were performed in A375 melanoma cells. Cells were exposed to AZD6244, ganetespib or the combination of the two concurrently for 72 hr and viability was assessed.
Combination Index (CI) was then determined using the median effect analysis software CalcuSyn 2.0 (CalcuSyn, Inc.). A Combination Index greater than one, equal to one or less than one indicates antagonism, additivity and synergism, respectively.

For experiment [2], the system named is H1666 NSCLC (BRAFG466V mutant). As to the kind of experiment: Cell viability (Cell Titer-Glo) in H1666 NSCLC cells, single agents and combination. The following applies: FIG. 5. On the procedure:
as §1, §2
The combination of ganetespib and AZD6244 was performed in the NSCLC cell line H1666. Similar to A375 cells, the combination of both compounds yielded greater anticancer activity than monotherapy. […]

The subject of experiment [3] is ERK. As to the kind of experiment: Western blotting of MAPK pathway analytes in A375 cells treated for 24 hr. To be noted: A375 melanoma cells with constitutively activated MAPK, FIG. 1. The procedure: as §1
Cells, treated with compound for 24 hr, were lysed in RIPA buffer (CST, Danvers, Mass., USA) on ice and clarified by centrifugation. Equal amounts of proteins were resolved by SDS-PAGE and immunoblotted with indicated antibodies. The antigen-antibody complex was visualized and quantitated using an Odyssey system (LI-COR, Lincoln, Nebr., USA).
The mitogen-activated protein kinase (MAPK) signal transduction cascade is dysregulated in a majority of human tumors.

Consider two compounds from patent US20140228418A1, “COMBINATION THERAPY OF HSP90 INHIBITORY COMPOUNDS WITH MEK INHIBITORS” (Synta Pharmaceuticals Corp., priority 2011, published 2014).

With `Cn1cnc2c(F)c(Nc3ccc(Br)cc3Cl)c(C(=O)NOCCO)cc21` [AZD6244, 6-(4-bromo-2-chloro-phenylamino)-7-fluoro-3-methyl-3H-benzoimidazole-5-carboxylic acid (2-hydroxy-ethoxy)-amide], the cells killed in experiment [1] (AZD6244 24 nM alone) is 10%; in experiment [2] (AZD6244 118 nM alone), “approximately 50%”. In addition, in experiment [1], the “concentration that killed 100% of the cells” value came to 228 nM. In addition, the IC50 in experiment [1] is 0.065 µM. In addition, in experiment [3], the “disruption of activation of the MEK substrate ERK / abrogation of ERK activity (western blot)” value is reported as “highly effective”.
Consider `CC(C)c1cc(-c2nnc(O)n2-c2ccc3c(ccn3C)c2)c(O)cc1O` [ganetespib, 3-(2,4-dihydroxy-5-isopropyl-phenyl)-4-(1-methyl-indol-5-yl)-5-hydroxy-[1,2,4] triazole], for which the “concentration that killed 100% of the cells” value in experiment [1] was 35 nM. The cells killed is given as 20% in experiment [1] (ganetespib 30 nM alone) and “approximately 50%” in experiment [2] (ganetespib 68 nM alone). In addition, in experiment [1], the IC50 came to 0.015 µM. Further, the “disruption of activation of the MEK substrate ERK / abrogation of ERK activity (western blot)” value in experiment [3] is recorded as “highly effective”.
